From patent US20240141294A1, “CGMP COMPLIANT PRODUCTION AND EXPANSION OF PLASMACYTOID DENDRITIC CELLS FROM HEMATOPOIETIC STEM AND PROGENITOR CELLS” (AARHUS UNIVERSITET, priority 2021, published 2024)

Tested on: HSPC-pDCs
Assay: RNA-sequencing of HSPC-pDCs generated with or without ascorbic acid
Type: cell-based, human
Method: HSPCs were thawed and 1×10^5 cells were seeded in DC medium with or without supplementation of ascorbic acid (AA). Following 16 days of differentiation with or without AA in the medium, pDCs were isolated by immunomagnetic depletion of non-pDCs, and HSPCs-pDCs were then primed for 72 hours with IFN-β/γ. Following priming, HSPC-pDCs were stored in RNAprotect Cell Reagent (Qiagen) at −80° C. until total RNA was extracted using the RNeasy Plus Micro Kit (Qiagen), which efficiently eliminates genomic DNA without the need for DNase treatment. The total RNA was send to BGI Europe for RNA-seq. Here, a non-stranded & polyA-selected mRNA library was prepared from the total RNA and subjected to PE100 sequencing using the BGISEQ platform. The samples generated on average about 4.84 Gb bases per sample. Low quality reads were filtered and the remaining reads were mapped to the genome with an average mapping ratio with the reference genome at 92.74%, the average gene mapping ratio at 79.90%. In total, 18,412 genes were identified. Gene expression was calculated based on the reads, differentially expressed genes and gene ontology analyses were analyzed on BGI's software analysis platform Dr. Tom. HSPCs were thawed and 1×10^5 cells were seeded in DC medium with or without supplementation of ascorbic acid (AA). Following 16 days of differentiation with or without AA in the medium, pDCs were isolated by immunomagnetic depletion of non-pDCs, and HSPCs-pDCs were then primed for 72 hours with IFN-β/γ. Following priming, HSPC-pDCs were stored in RNAprotect Cell Reagent (Qiagen) at −80 degrees until total RNA was extracted using the RNeasy Plus Micro Kit (Qiagen), which efficiently eliminates genomic DNA without the need for DNase treatment. The total RNA was send to BGI Europe for RNA-seq. Here, a non-stranded & polyA-selected mRNA library was prepared from the total RNA and subjected to PE100 sequencing using the BGISEQ platform. The samples generated on average about 4.84 Gb bases per sample. Low quality reads were filtered and the remaining reads were mapped to the genome with an average mapping ratio with the reference genome at 92.74%, the average gene mapping ratio at 79.90%. In total, 18,412 genes were identified. Gene expression was calculated based on the reads, differentially expressed genes and gene ontology analyses were analyzed on BGI's software analysis platform Dr. Tom.

[1] = condition with AA, |log 2FC|>=1 and Qvalue <=0.05

O=C1O[C@H]([C@@H](O)CO)C(O)=C1O [ascorbic acid]
number of downregulated genes [1]: 334 genes
number of upregulated genes [1]: 916 genes
Log2 (+AA/−AA) (gene ADA2, Qvalue 2.90E−08): 0.759
+AA FPKM (gene ADA2, −AA FPKM 117.7033): 197.7367 FPKM
Log2 (+AA/−AA) (gene ALOX5AP, Qvalue 0.002016945): 0.793
+AA FPKM (gene ALOX5AP, −AA FPKM 210): 364 FPKM
Log2 (+AA/−AA) (gene ANXA2, Qvalue 9.39E−07): 1.658
+AA FPKM (gene ANXA2, −AA FPKM 106): 333 FPKM
Log2 (+AA/−AA) (gene APP, Qvalue 0.015253176): 0.696
+AA FPKM (gene APP, −AA FPKM 133): 215 FPKM
Log2 (+AA/−AA) (gene BRI3, Qvalue 0.00802755): 0.724
+AA FPKM (gene BRI3, −AA FPKM 216): 358 FPKM
Log2 (+AA/−AA) (gene C1QA, Qvalue 0.002254892): 1.342
+AA FPKM (gene C1QA, −AA FPKM 91): 230 FPKM
Log2 (+AA/−AA) (gene C1QB, Qvalue 0.011037205): 1.137
+AA FPKM (gene C1QB, −AA FPKM 147): 323 FPKM
Log2 (+AA/−AA) (gene C1QC, Qvalue 0.002547556): 1.551
+AA FPKM (gene C1QC, −AA FPKM 126): 365 FPKM
Log2 (+AA/−AA) (gene C1orf162, Qvalue 0.038404809): 0.529
+AA FPKM (gene C1orf162, −AA FPKM 178): 256 FPKM
Log2 (+AA/−AA) (gene CD68, Qvalue 3.20E−09): 1.365
+AA FPKM (gene CD68, −AA FPKM 240): 619 FPKM
Log2 (+AA/−AA) (gene CD74, Qvalue 3.24E−08): 0.841
+AA FPKM (gene CD74, −AA FPKM 5008): 8923 FPKM
Log2 (+AA/−AA) (gene CD81, Qvalue 0.002330558): 1.451
+AA FPKM (gene CD81, −AA FPKM 85): 235 FPKM
Log2 (+AA/−AA) (gene CHI3L1, Qvalue 0.024834793): 2.178
+AA FPKM (gene CHI3L1, −AA FPKM 108): 496 FPKM
Log2 (+AA/−AA) (gene CTSB, Qvalue 6.81E−09): 1.920
+AA FPKM (gene CTSB, −AA FPKM 96): 363 FPKM
Log2 (+AA/−AA) (gene CTSD, Qvalue 1.73E−06): 1.460
+AA FPKM (gene CTSD, −AA FPKM 323): 893 FPKM
Log2 (+AA/−AA) (gene CTSH, Qvalue 2.00E−04): 1.227
+AA FPKM (gene CTSH, −AA FPKM 116): 271 FPKM
Log2 (+AA/−AA) (gene CTSS, Qvalue 1.80E−04): 0.939
+AA FPKM (gene CTSS, −AA FPKM 126): 242 FPKM
Log2 (+AA/−AA) (gene CTSZ, Qvalue 3.93E−08): 1.002
+AA FPKM (gene CTSZ, −AA FPKM 232): 462 FPKM
Log2 (+AA/−AA) (gene CYBB, Qvalue 0.018453508): 0.807
+AA FPKM (gene CYBB, −AA FPKM 184): 322 FPKM
Log2 (+AA/−AA) (gene DEFA1, Qvalue 6.38E−05): 5.728
+AA FPKM (gene DEFA1, −AA FPKM 20): 1047 FPKM
Log2 (+AA/−AA) (gene DEFA3, Qvalue 0.001704486): 4.431
+AA FPKM (gene DEFA3, −AA FPKM 27): 593 FPKM
Log2 (+AA/−AA) (gene DEFA4, Qvalue 1.65E−08): 4.651
+AA FPKM (gene DEFA4, −AA FPKM 39): 975 FPKM
Log2 (+AA/−AA) (gene EVI2B, Qvalue 0.01888367): 0.294
+AA FPKM (gene EVI2B, −AA FPKM 193): 236 FPKM
Log2 (+AA/−AA) (gene FCER1G, Qvalue 0.033270138): 0.509
+AA FPKM (gene FCER1G, −AA FPKM 961): 1367 FPKM
Log2 (+AA/−AA) (gene FLNA, Qvalue 0.011692048): 0.372
+AA FPKM (gene FLNA, −AA FPKM 160.4000): 206.4233 FPKM
Log2 (+AA/−AA) (gene FTH1, Qvalue 0.00845252): 1.289
+AA FPKM (gene FTH1, −AA FPKM 1395): 3417 FPKM
Log2 (+AA/−AA) (gene GRINA, Qvalue 0.006989716): 0.718
+AA FPKM (gene GRINA, −AA FPKM 130): 214 FPKM
Log2 (+AA/−AA) (gene GRN, Qvalue 0.015829898): 0.695
+AA FPKM (gene GRN, −AA FPKM 432): 696 FPKM
Log2 (+AA/−AA) (gene HLA-DMB, Qvalue 0.022417743): 0.717
+AA FPKM (gene HLA-DMB, −AA FPKM 188): 307 FPKM
Log2 (+AA/−AA) (gene HLA-DPA1, Qvalue 6.34E−04): 0.763
+AA FPKM (gene HLA-DPA1, −AA FPKM 1038): 1750 FPKM
Log2 (+AA/−AA) (gene HLA-DPB1, Qvalue 0.003235049): 0.785
+AA FPKM (gene HLA-DPB1, −AA FPKM 227): 388 FPKM
Log2 (+AA/−AA) (gene HLA-DQA1, Qvalue 0.03140587): 1.374
+AA FPKM (gene HLA-DQA1, −AA FPKM 161): 414 FPKM
Log2 (+AA/−AA) (gene HLA-DRB1, Qvalue 1.76E−04): 1.122
+AA FPKM (gene HLA-DRB1, −AA FPKM 1106): 2401 FPKM
Log2 (+AA/−AA) (gene HLA-DRB3, Qvalue 0.018823029): 1.224
+AA FPKM (gene HLA-DRB3, −AA FPKM 159): 365 FPKM
Log2 (+AA/−AA) (gene IFI27, Qvalue 3.56E−04): 4.638
+AA FPKM (gene IFI27, −AA FPKM 15): 377 FPKM
Log2 (+AA/−AA) (gene IFITM3, Qvalue 6.61E−06): 1.496
+AA FPKM (gene IFITM3, −AA FPKM 494): 1383 FPKM
Log2 (+AA/−AA) (gene IL2RG, Qvalue 0.001778062): 0.785
+AA FPKM (gene IL2RG, −AA FPKM 122): 209 FPKM
Log2 (+AA/−AA) (gene ITGB2, Qvalue 9.28E−04): 0.599
+AA FPKM (gene ITGB2, −AA FPKM 433): 654 FPKM
Log2 (+AA/−AA) (gene LGALS3, Qvalue 5.07E−04): 1.667
+AA FPKM (gene LGALS3, −AA FPKM 62.3833): 199.3967 FPKM
Log2 (+AA/−AA) (gene LGALS3BP, Qvalue 5.08E−05): 1.001
+AA FPKM (gene LGALS3BP, −AA FPKM 155): 310 FPKM
Log2 (+AA/−AA) (gene MX1, Qvalue 0.026353098): 2.341
+AA FPKM (gene MX1, −AA FPKM 42): 212 FPKM
Log2 (+AA/−AA) (gene NCF1, Qvalue 0.015338721): 0.659
+AA FPKM (gene NCF1, −AA FPKM 131): 207 FPKM
Log2 (+AA/−AA) (gene PRDX1, Qvalue 0.009710824): 1.094
+AA FPKM (gene PRDX1, −AA FPKM 106): 227 FPKM
Log2 (+AA/−AA) (gene PSAP, Qvalue 7.31E−04): 0.802
+AA FPKM (gene PSAP, −AA FPKM 600): 1044 FPKM
Log2 (+AA/−AA) (gene RETN, Qvalue 0.035172121): 0.766
+AA FPKM (gene RETN, −AA FPKM 244): 414 FPKM
Log2 (+AA/−AA) (gene S100A11, Qvalue 0.024890893): 0.525
+AA FPKM (gene S100A11, −AA FPKM 732): 1054 FPKM
Log2 (+AA/−AA) (gene SERPING1, Qvalue 2.30E−05): 1.387
+AA FPKM (gene SERPING1, −AA FPKM 181): 471 FPKM
Log2 (+AA/−AA) (gene SOD2, Qvalue 0.017321675): 1.145
+AA FPKM (gene SOD2, −AA FPKM 129): 301 FPKM
Log2 (+AA/−AA) (gene TYMP, Qvalue 0.016368204): 0.679
+AA FPKM (gene TYMP, −AA FPKM 348): 553 FPKM
number of TLR7 and TLR9 pathway genes statistically significantly expressed (of 54 selected genes, AA in media during HSPC-pDC generation): 17 genes
